Assay results from patent US8003783B2, “17B-hydroxysteroid dehydrogenase inhibitors” (Sterix Limited, priority 2004, dated 2011).
Where “and” joins values, the source holds several entries; their conditions need not be identical. Equal values may be shown once. Read-outs that look alike come from different tables or passages of the source.

Legend:
E1-STS = target: T1, E1-STS (Homo sapiens, UniProt P08842); design: dose or concentration left out as unconfirmed; conditions: intact MCF-7 cells; cited from earlier work
T1 construct: endogenous in cells; host or cells: MCF-7 human breast cancer cells
T1 sequence (P08842 22-583): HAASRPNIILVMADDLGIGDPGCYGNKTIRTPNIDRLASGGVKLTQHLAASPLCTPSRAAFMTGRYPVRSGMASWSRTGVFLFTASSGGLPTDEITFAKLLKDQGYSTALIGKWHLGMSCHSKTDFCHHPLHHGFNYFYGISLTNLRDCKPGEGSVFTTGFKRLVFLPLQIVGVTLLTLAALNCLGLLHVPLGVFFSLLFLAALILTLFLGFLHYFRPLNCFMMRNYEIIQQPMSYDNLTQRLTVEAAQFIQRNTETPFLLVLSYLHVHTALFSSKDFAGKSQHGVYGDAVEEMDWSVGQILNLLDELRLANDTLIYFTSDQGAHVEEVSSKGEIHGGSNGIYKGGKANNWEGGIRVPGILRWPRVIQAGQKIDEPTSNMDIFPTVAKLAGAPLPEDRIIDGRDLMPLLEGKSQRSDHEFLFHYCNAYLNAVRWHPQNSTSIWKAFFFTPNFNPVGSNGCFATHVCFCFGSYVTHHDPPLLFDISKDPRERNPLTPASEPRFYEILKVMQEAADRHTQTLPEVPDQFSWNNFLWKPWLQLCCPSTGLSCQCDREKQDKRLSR

rat liver E1-STS = target: T2, rat liver E1-STS (Rattus norvegicus, UniProt P15589); conditions: administered orally or subcutaneously; cited from earlier work
T2 construct: samples of liver tissue were obtained and oestrone sulphatase activity assayed; from tissue; host or cells: rat liver
T2 sequence (P15589 20-577): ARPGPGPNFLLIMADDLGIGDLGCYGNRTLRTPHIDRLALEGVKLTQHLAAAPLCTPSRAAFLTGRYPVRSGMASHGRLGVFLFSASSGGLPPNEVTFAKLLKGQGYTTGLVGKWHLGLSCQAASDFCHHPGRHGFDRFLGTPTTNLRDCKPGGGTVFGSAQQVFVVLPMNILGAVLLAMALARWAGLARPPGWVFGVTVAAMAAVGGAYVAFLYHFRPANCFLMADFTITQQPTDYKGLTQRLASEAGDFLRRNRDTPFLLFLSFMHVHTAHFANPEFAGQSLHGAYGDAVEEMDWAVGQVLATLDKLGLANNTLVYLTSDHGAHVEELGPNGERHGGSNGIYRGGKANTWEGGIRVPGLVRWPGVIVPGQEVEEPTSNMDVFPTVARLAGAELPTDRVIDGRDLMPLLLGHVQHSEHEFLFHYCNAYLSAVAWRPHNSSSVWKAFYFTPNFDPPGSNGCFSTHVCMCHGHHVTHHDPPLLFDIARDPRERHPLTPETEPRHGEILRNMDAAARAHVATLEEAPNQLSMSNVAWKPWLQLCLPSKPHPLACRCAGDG

rat liver DHA-STS = target: T3, rat liver DHA-STS (Rattus norvegicus, UniProt P15589); conditions: administered orally or subcutaneously; cited from earlier work
T3 construct: from tissue; host or cells: rat liver
T3 sequence (P15589 20-577): T2 sequence (P15589 20-577)

rats = conditions: cited from earlier work
17β-HSD1 = target: T4, 17β-HSD1 (Homo sapiens, UniProt P14061); assay: 17β-HSD Type I activity in T-47D cells (E1→E2); assay type: cell-based; conditions: for inhibition at 10 µM: T47D
T4 construct: was measured in intact cell monolayers of T47D and MDA-MB-231 breast cancer cells respectively; endogenous in cells; host or cells: T-47D human breast cancer cells
T4 sequence (P14061 1-328): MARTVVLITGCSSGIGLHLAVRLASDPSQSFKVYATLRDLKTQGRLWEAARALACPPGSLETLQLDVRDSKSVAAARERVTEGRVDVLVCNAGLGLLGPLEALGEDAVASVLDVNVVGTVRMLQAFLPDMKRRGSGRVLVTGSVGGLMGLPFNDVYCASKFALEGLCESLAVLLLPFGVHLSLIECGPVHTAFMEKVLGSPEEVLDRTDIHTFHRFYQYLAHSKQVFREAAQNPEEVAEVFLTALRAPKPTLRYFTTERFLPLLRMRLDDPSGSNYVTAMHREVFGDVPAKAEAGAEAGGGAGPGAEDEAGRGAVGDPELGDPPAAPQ

17β-HSD2 = target: T5, 17β-HSD2 (Homo sapiens, UniProt P37059); assay: 17β-HSD Type II activity in MDA-MB-231 cells (E2→E1); assay type: cell-based
T5 construct: was measured in intact cell monolayers of T47D and MDA-MB-231 breast cancer cells respectively; endogenous in cells; host or cells: MDA-MB-231 human breast cancer cells
T5 sequence (P37059 1-387): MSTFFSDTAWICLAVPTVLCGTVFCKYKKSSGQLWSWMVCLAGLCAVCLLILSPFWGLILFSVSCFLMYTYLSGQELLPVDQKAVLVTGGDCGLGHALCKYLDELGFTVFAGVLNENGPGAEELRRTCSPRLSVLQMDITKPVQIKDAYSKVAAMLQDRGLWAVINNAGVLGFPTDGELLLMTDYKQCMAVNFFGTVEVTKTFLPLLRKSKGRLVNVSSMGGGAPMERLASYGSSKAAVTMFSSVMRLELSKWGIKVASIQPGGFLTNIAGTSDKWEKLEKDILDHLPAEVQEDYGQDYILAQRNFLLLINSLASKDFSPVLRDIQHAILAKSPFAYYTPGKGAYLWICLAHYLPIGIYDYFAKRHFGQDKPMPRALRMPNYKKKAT

[1] = 10 μM, T-47D cells, E1→E2, read-out: % inhibition of 17β-HSD1 @ 10 μM
[2] = 10 μM, MDA-MB-231 cells, E2→E1, read-out: % inhibition of 17β-HSD2 @ 10 μM
[3] = read-out: % inhibition of 17β-HSD1 @ 10 μM, 10 μM, T-47D cells, E1→E2
[4] = MDA-MB-231, read-out: % inhibition of 17β-HSD2 @ 10 μM
[5] = T-47D cells, E1→E2, read-out: IC50 (17β-HSD1)

Row | Compound | inhibition at 10 µM (17β-HSD1; [1]) [%] | inhibition at 10 µM (17β-HSD2; [2]) [%] | also measured
1 | C[C@]12CC[C@@H]3c4ccc(OS(N)(=O)=O)cc4CC[C@H]3[C@@H]1CCC2=O [EMATE, oestrone-3-sulphamate] | – | – | inhibition of E1-STS activity (E1-STS): more than 99%; inhibition of rat liver E1-STS activity (rat liver E1-STS): 99%; inhibition of rat liver DHA-STS activity (rat liver DHA-STS): 99%; oral uterotrophic activity relative to oestradiol (rats): 100 times
2 | CN(C)c1ccc(/C=C2\CC3C4CCc5cc(O)ccc5C4CC[C@]3(C)C2=O)cc1 (some centres unmarked) [compound 477, 16-(4-Dimethylamino-benzylidene)-3-hydroxy-13-methyl-6,7,8,9,11,12,13,14,15,16-decahydro-cyclopenta[a]phenanthron-17-one] | 72 | 13 | –
3 | COc1cc(/C=C2\CC3C4CCc5cc(O)ccc5C4CC[C@]3(C)[C@H]2O)cc(OC)c1OC (some centres unmarked) [compound 329] | – | 3 | % inhibition of 17β-HSD1 @ 10 μM (17β-HSD1; 10 μM, T-47D cells, E1→E2): 63% and 33%
4 | C[C@]12CCC3c4ccc(O)cc4CCC3C1C/C(=C\c1cccnc1)[C@@H]2O (some centres unmarked) [compound 323] | 52 | 43 | –
5 | Cc1cnc(CNC(=O)c2[nH]nc3c2CC2C4CCc5cc(O)ccc5C4CC[C@]32C)cn1 (some centres unmarked) [compound 896] | – | – | inhibition at 10 µM (17β-HSD1; [3]): 80%; inhibition at 10 µM (17β-HSD2; [4]): 61%
6 | CO/N=C1\CC2C(CC[C@]3(C)/C(=N/OC)CCC23)c2ccc(O)cc21 (some centres unmarked) [compound 515] | 15 | 31 | –
7 | CCN(C)C(=O)C1CC2C3CCc4cc(O)ccc4C3CC[C@]2(C)[C@H]1O (some centres unmarked) [compound 800] | 79 | -6 | –
8 | CN(C)CCCNC(=O)CC1CC2C3CCc4cc(O)ccc4C3CC[C@]2(C)C1=O (some centres unmarked) [compound 688] | 36 | 13 | –
9 | COCCn1ncc2c1[C@@]1(C)CCC3c4ccc(O)cc4CCC3C1C2 (some centres unmarked) [compound 809] | 83 | 55 | –
10 | C[C@]12CCC3c4ccc(O)cc4CCC3C1CC(Cc1cccnc1)[C@@H]2O (stereo in doubt) [compound 542, 13-Methyl-16-pyridin-3-ylmethyl-7,8,9,11,12,13,14,15,16,17-decahydro-6H-cyclopenta[a]phenanthrene-3,17-diol] | 87 | 11 | –
11 | C[C@]12CCC3c4ccc(O)cc4CCC3C1C/C(=C\c1cccs1)[C@@H]2O (some centres unmarked) [compound 507] | 41 | 25 | –
12 | COCCn1cc2c(n1)[C@@]1(C)CCC3c4ccc(O)cc4CCC3C1C2 (some centres unmarked) [compound 808] | 95 | 48 | IC50 (17β-HSD1; [5]): 530 nM
13 | C[C@]12CCC3C4CC=C(O)C=C4CCC3C1CC(CC(=O)O)C2=O (some centres unmarked) [compound 604] | 13 | -5 | –
14 | C[C@]12CCC3c4ccc(OS(N)(=O)=O)cc4CCC3C1C/C(=C\c1cccnc1)C2=O (some centres unmarked) [compound 453] | 22 | 10 | –
15 | C[C@]12CCC3c4ccc(O)cc4CCC3C1CC(CC(=O)NCC1CCCO1)C2=O (some centres unmarked) [compound 671] | 91 | 21 | IC50 (17β-HSD1; [5]): 380 nM
16 | C[C@]12CCC3c4ccc(O)cc4CCC3C1C/C(=C/O)C2=O (some centres unmarked) [compound 486] | 97 | 15 | IC50 (17β-HSD1; [5]): 110 nM

Row | Compound | inhibition at 10 µM (17β-HSD1; [1]) [%] | inhibition at 10 µM (17β-HSD2; [2]) [%] | also measured
17 | CCOC(=O)CC1CC2C3CCc4cc(O)ccc4C3CC[C@]2(C)C1=O (some centres unmarked) [compound 573] | 97 | 18 | IC50 (17β-HSD1): 300 nM
18 | Cn1c2c(c(=O)n1C)CC1C3CCc4cc(O)ccc4C3CC[C@]21C (some centres unmarked) [compound 942] | 32 | 15 | –
19 | Cn1cc2c(n1)[C@@]1(C)CCC3c4ccc(O)cc4CCC3C1C2 (some centres unmarked) [compound 785] | – | – | inhibition at 10 µM (17β-HSD1; [3]): 94%; IC50 (17β-HSD1; [5]): 2750 nM; inhibition at 10 µM (17β-HSD2; [4]): 24%
20 | CNC(=O)c1[nH]nc2c1CC1C3CCc4cc(O)ccc4C3CC[C@]21C (some centres unmarked) [compound 893] | – | – | inhibition at 10 µM (17β-HSD1; [3]): 62%; inhibition at 10 µM (17β-HSD2; [4]): 14%
21 | CC(C)/C=C1\CC2C3CCc4cc(O)ccc4C3CC[C@]2(C)C1=O (some centres unmarked) [compound 571] | 71 | 18 | –
22 | C[C@]12CCC3c4ccc(O)cc4CCC3C1CC(CC(=O)NCCc1ccccn1)C2=O (some centres unmarked) [compound 691] | 58 | 14 | –
23 | COc1cc2c(cc1OS(N)(=O)=O)CCC1C2CC[C@]2(C)C(=O)C(C#N)CC12 (some centres unmarked) [compound 210] | 95 | 8 | IC50 (17β-HSD1; [5]): 2100 nM
24 | Cn1cccc1CNC(=O)c1[nH]nc2c1CC1C3CCc4cc(O)ccc4C3CC[C@]21C (some centres unmarked) [compound 895] | – | – | inhibition at 10 µM (17β-HSD1; [3]): 89%; IC50 (17β-HSD1; [5]): 2300 nM; inhibition at 10 µM (17β-HSD2; [4]): -4%
25 | C[C@]12CCC3c4ccc(O)cc4CCC3C1CC(C#N)C2=O (some centres unmarked) [compound 207] | 83 | 17 | % inhibition of 17β-HSD1 @ 10 μM (17β-HSD1; 10 μM, T-47D cells, E1→E2): 71%; IC50 (17β-HSD1; [5]): 10000 nM
26 | C[C@]12CCC3c4ccc(O)cc4CCC3C1C/C(=C\c1cccnc1)C2=O (some centres unmarked) [compound 320] | 44 | 10 | –
27 | C[C@]12CCC3c4ccc(O)cc4CCC3C1C/C(=C\c1ccco1)C2=O (some centres unmarked) [compound 474] | 26 | 17 | –
28 | C[C@]12CCC3c4ccc(O)cc4CCC3C1CC(C#N)[C@@H]2O (some centres unmarked) [compound 561] | 56 | 4 | –
29 | COC(=O)C1CC2C3CCc4cc(O)ccc4C3CC[C@]2(C)C1=O (some centres unmarked) [compound 568] | 69 | 9 | –
30 | C[C@]12CCC3c4ccc(O)cc4CCC3C1Cc1cn(CCC#N)nc12 (some centres unmarked) [compound 921] | 95 | 44 | IC50 (17β-HSD1; [5]): 730 nM
31 | CCNC(=O)CC1CC2C3CCc4cc(O)ccc4C3CC[C@]2(C)[C@H]1O (some centres unmarked) [compound 774] | 76 | 13 | –
